A short description of the assay: Inhibition of caspase-like activity of proteasome (unknown origin). Also noted: species or system Homo sapiens.

Structures are written as SMILES.

As a reminder, the IC50 is the concentration needed to halve the response being measured. The low end stands for greater potency in that assay, the high end for weaker potency in that assay.

Take `CC(C)C[C@H](NC(=O)[C@@H](NC(=O)c1cccc(-c2ccccc2)n1)[C@@H](C)O)B(O)O` [DELANZOMIB]: the IC50 came to 0.07 µM.

The values are drawn from ChEMBL document CHEMBL3232719 (J Med Chem, 2014).
